# Experimental data reported in patent publication US11524968B2, “Heterocyclic compound as a protein kinase inhibitor” (HK inno.N Corporation, priority 2017, dated 2022).
# pIC50: −log10 of the molar value. Read-outs that look alike come from different tables or passages of the source.
# Molecular target: JAK1 (Homo sapiens (Human), UniProt P23458)
# Assay: Analysis of JAK1 activity inhibition ability (ADP-Glo Kinase Assay)
# Type: biochemical
# Outline: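 JAK1 enzyme, IRS-itide substrate (40 ng/mL) and 250 uM ATP, both as prepared in kinase buffer (Tris-HCl pH 7.5, MgCl2, BSA, DTT), reacted with compound 40 min at 30 °C. ADP formed was detected by ADP-Glo luminescence; IC50 is the concentration giving 50% inhibition versus control.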
# [1] = JAK1 enzyme, ADP-Glo luminescence, ATP 250 uM, IRS-itide substrate, 30° C. 40 minutes, read-out: IC50
# Sequence of JAK1 (P23458 whole entry): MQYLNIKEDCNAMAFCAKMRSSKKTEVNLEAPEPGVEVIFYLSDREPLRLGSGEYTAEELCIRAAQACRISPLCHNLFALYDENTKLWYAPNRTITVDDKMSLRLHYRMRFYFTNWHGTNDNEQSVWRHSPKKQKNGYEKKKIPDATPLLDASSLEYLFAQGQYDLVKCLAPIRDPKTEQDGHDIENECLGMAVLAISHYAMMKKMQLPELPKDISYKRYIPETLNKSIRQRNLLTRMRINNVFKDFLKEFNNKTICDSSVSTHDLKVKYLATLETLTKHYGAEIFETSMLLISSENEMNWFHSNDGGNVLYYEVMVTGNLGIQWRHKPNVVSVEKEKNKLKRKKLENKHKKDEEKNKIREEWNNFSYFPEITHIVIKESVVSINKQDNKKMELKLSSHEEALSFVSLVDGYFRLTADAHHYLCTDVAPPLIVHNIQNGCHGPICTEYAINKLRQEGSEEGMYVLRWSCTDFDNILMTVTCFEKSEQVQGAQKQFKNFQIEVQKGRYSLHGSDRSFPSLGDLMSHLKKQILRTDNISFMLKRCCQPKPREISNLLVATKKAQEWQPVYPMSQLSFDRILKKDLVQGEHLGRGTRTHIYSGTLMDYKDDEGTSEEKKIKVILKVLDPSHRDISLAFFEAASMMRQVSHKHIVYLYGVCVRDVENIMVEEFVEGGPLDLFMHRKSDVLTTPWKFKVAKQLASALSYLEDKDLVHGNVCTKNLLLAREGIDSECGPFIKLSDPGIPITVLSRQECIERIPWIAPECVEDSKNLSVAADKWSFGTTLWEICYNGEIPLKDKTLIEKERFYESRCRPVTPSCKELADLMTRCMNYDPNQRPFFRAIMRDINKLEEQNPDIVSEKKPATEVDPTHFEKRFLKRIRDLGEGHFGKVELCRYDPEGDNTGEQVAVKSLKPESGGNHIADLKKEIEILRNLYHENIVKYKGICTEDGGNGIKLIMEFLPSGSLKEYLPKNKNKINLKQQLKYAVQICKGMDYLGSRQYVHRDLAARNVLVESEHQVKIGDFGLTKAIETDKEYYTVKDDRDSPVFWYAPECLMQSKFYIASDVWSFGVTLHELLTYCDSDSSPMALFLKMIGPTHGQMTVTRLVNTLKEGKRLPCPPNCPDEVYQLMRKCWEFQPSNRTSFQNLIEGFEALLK
compound,measurement,setting,value
"CCCS(=O)(=O)Nc1ccc(-c2cc(NC(=O)C3CC3)nc3[nH]ccc23)cc1 [Example 5, N-(4-(4-(propylsulfonamido)phenyl)-1H-pyrrolo[2,3-b]pyridin-6-yl)cyclopropanecarboxamide]",pIC50,[1],> 7.70
"CC1CN(C(=O)C(C#N)Cc2ccc(F)cc2)CC=C1c1cc(NC(=O)C2CC2)nc2[nH]ccc12 (stereo not drawn) [Example 359, N-(4-(1-(2-cyano-3-(4-fluorophenyl)propanoyl)-3-methyl-1,2,3,6-tetrahydropyridin-4-yl)-1H-pyrrolo[2,3-b]pyridin-6-yl)cyclopropanecarboxamide]",pIC50,[1],6.70 to 7.70
"CCCS(=O)(=O)Nc1ccc(-c2cc(NC(=O)C3CC3)nc3[nH]ccc23)c(C)c1 [Example 95, N-(4-(2-methyl-4-(propylsulfonamido)phenyl)-1H-pyrrolo[2,3-b]pyridin-6-yl)cyclopropanecarboxamide]",pIC50,[1],6.70 to 7.70
"N#CCC1(N2CC=C(c3cc(NC(=O)C4CC4)nc4[nH]ccc34)CC2)CN(C(=O)CC(F)(F)F)C1 [Example 625, N-(4-(1-(3-(cyanomethyl)-1-(3,3,3-trifluoropropanoyl)azetidin-3-yl)-1,2,3,6-tetrahydropyridin-4-yl)-1H-pyrrolo[2,3-b]pyridin-6-yl)cyclopropanecarboxamide]",pIC50,[1],6.70 to 7.70
"CC1CN(C(=O)c2cccc(CCN3C(=O)COCC3=O)c2)CC=C1c1cc(NC(=O)C2CC2)nc2[nH]ccc12 (stereo not drawn) [Example 315, N-(4-(1-(3-(2-(3,5-dioxomorpholino)ethyl)benzoyl)-3-methyl-1,2,3,6-tetrahydropyridin-4-yl)-1H-pyrrolo[2,3-b]pyridin-6-yl)cyclopropanecarboxamide]",pIC50,[1],< 6.70
"O=C(Nc1cc(C2=CCN(C(=O)C3CC3C(F)(F)F)CC2)c2cc[nH]c2n1)C1CC1 (stereo not drawn) [Example 282, N-(4-(1-(2-(trifluoromethyl)cyclopropane-1-carbonyl)-1,2,3,6-tetrahydropyridin-4-yl)-1H-pyrrolo[2,3-b]pyridin-6-yl)cyclopropanecarboxamide]",pIC50,[1],6.70 to 7.70
"O=C(Nc1cc(-c2ccc(NS(=O)(=O)C3CCCCC3)cc2)c2cc[nH]c2n1)C1CC1 [Example 7, N-(4-(4-(cyclohexanesulfonamido)phenyl)-1H-pyrrolo[2,3-b]pyridin-6-yl)cyclopropanecarboxamide]",pIC50,[1],> 7.70
"O=C1CCN(C(=O)Cc2ccc(-c3cc(NC(=O)C4CC4)nc4[nH]ccc34)cc2)CC1 [Example 549, N-(4-(4-(2-oxo-2-(4-oxopiperidin-1-yl)ethyl)phenyl)-1H-pyrrolo[2,3-b]pyridin-6-yl)cyclopropanecarboxamide]",pIC50,,6.70 to 7.70
"CCCS(=O)(=O)N[C@H]1CCN(c2nc(NC(=O)C3CC3)nc3[nH]ccc23)C1 [Example 670, (S)—N-(4-(3-(propylsulfonamido)pyrrolidin-1-yl)-7H-pyrrolo[2,3-d]pyrimidin-2-yl)cyclopropanecarboxamide]",pIC50,[1],< 6.70
"N#CCCn1ccc(-c2cc(NC(=O)C3CC3)nc3[nH]ccc23)c1 [Example 483, N-(4-(1-(2-cyanoethyl)-1H-pyrrol-3-yl)-1H-pyrrolo[2,3-b]pyridin-6-yl)cyclopropanecarboxamide]",pIC50,[1],> 7.70
"C=CCC(=O)N1CC=C(c2cc(NC(=O)C3CC3)nc3[nH]ccc23)CC1 [Example 270, N-(4-(1-(but-3-enoyl)-1,2,3,6-tetrahydropyridin-4-yl)-1H-pyrrolo[2,3-b]pyridin-6-yl)cyclopropanecarboxamide]",pIC50,[1],< 6.70
"Cc1ccc(S(=O)(=O)Nc2ccc(-c3cc(NC(=O)C4CC4)nc4[nH]ccc34)cc2)cc1 [Example 27, N-(4-(4-((4-methylphenyl)sulfonamido)phenyl)-1H-pyrrolo[2,3-b]pyridin-6-yl)cyclopropanecarboxamide]",pIC50,[1],6.70 to 7.70
"CC1CN(S(=O)(=O)Nc2ccc(-c3cc(NC(=O)C4CC4)nc4[nH]ccc34)cc2)CC(C)O1 (stereo not drawn) [Example 220, N-(4-(4-((2,6-dimethylmorpholine)-4-sulfonamido)phenyl)-1H-pyrrolo[2,3-b]pyridin-6-yl)cyclopropanecarboxamide]",pIC50,[1],6.70 to 7.70
"CCS(=O)(=O)Nc1ccc(-c2cc(NC(=O)C3CC3)nc3[nH]ccc23)cc1C [Example 64, N-(4-(4-(ethylsulfonamido)-3-methylphenyl)-1H-pyrrolo[2,3-b]pyridin-6-yl)cyclopropanecarboxamide]",pIC50,[1],> 7.70
"O=C(Nc1cc(C2=CC3CCCC(C2)N3C(=O)c2ccc([N+](=O)[O-])cc2)c2cc[nH]c2n1)C1CC1 (stereo not drawn) [Example 370, N-(4-(9-(4-nitrobenzoyl)-9-azabicyclo[3.3.1]non-2-en-3-yl)-1H-pyrrolo[2,3-b]pyridin-6-yl)cyclopropanecarboxamide]",pIC50,[1],6.70 to 7.70
"COC(=O)C1(C(=O)N2CC=C(c3cc(NC(=O)C4CC4)nc4[nH]ccc34)C(C)C2)CCC1 (stereo not drawn) [Example 318, methyl 1-(4-(6-(cyclopropanecarboxamido)-1H-pyrrolo[2,3-b]pyridin-4-yl)-3-methyl-1,2,3,6-tetrahydropyridine-1-carbonyl)cyclobutane-1-carboxylate]",pIC50,[1],< 6.70
"CC1CN(C(=O)c2c(Cl)cncc2Cl)CC=C1c1cc(NC(=O)C2CC2)nc2[nH]ccc12 (stereo not drawn) [Example 374, N-(4-(1-(3,5-dichloroisonicotinoyl)-3-methyl-1,2,3,6-tetrahydropyridin-4-yl)-1H-pyrrolo[2,3-b]pyridin-6-yl)cyclopropanecarboxamide]",pIC50,[1],6.70 to 7.70
"O=C(Nc1cc(-c2ccc(CCN3CCS(=O)(=O)CC3)cc2)c2cc[nH]c2n1)C1CC1 [Example 591, N-(4-(4-(2-(1,1-dioxidothiomorpholino)ethyl)phenyl)-1H-pyrrolo[2,3-b]pyridin-6-yl)cyclopropanecarboxamide]",pIC50,[1],6.70 to 7.70
"O=C(Nc1cc(-c2ccc(NS(=O)(=O)CC3CCCCC3)cc2)c2cc[nH]c2n1)C1CC1 [Example 47, N-(4-(4-((cyclohexylmethyl)sulfonamido)phenyl)-1H-pyrrolo[2,3-b]pyridin-6-yl)cyclopropanecarboxamide]",pIC50,[1],> 7.70
"O=C(Nc1cc(-c2ccc(NC(=O)N3CCOCC3)cc2)c2cc[nH]c2n1)C1CC1 [Example 432, N-(4-(6-(cyclopropanecarboxamido)-1H-pyrrolo[2,3-b]pyridin-4-yl)phenyl)morpholine-4-carboxamide]",pIC50,[1],6.70 to 7.70
"Cc1c(NC(=O)C2CC2)nc2[nH]ccc2c1C1=CCN(C(=O)CC(F)(F)F)CC1 [Example 290, N-(5-methyl-4-(1-(3,3,3-trifluoropropanoyl)-1,2,3,6-tetrahydropyridin-4-yl)-1H-pyrrolo[2,3-b]pyridin-6-yl)cyclopropanecarboxamide]",pIC50,[1],< 6.70
"O=C(Nc1cc(-c2ccc(NC3CN(C(=O)Nc4ccc(F)cc4F)C3)cc2)c2cc[nH]c2n1)C1CC1 [Example 513, 3-((4-(6-(cyclopropanecarboxamido)-1H-pyrrolo[2,3-b]pyridin-4-yl)phenyl)amino)-N-(2,4-difluorophenyl)azetidine-1-carboxamide]",pIC50,[1],< 6.70
"O=C(Nc1cc(C2=CCC(NS(=O)(=O)c3cccc(F)c3)CC2)c2cc[nH]c2n1)C1CC1 (stereo not drawn) [Example 163, N-(4-(4-((3-fluorophenyl)sulfonamido)cyclohex-1-en-1-yl)-1H-pyrrolo[2,3-b]pyridin-6-yl)cyclopropanecarboxamide]",pIC50,[1],> 7.70
"O=C(Nc1cc(N2CCN(Cc3ccns3)CC2)c2cc[nH]c2n1)C1CC1 [Example 698, N-(4-(4-(isothiazol-5-ylmethyl)piperazin-1-yl)-1H-pyrrolo[2,3-b]pyridin-6-yl)cyclopropanecarboxamide]",pIC50,[1],6.70 to 7.70
